Measurements from patent US20100267561A1, “HERBICIDAL PYRIDAZINONE DERIVATIVES” (priority 2007, published 2010).
Like-named read-outs stand apart in the source and are kept apart here.

Experiments:
Format in all cases: in vivo
[1] = test system: barnyardgrass (Echinochloa crus-galli); assay: Test A pre-/postemergence plant response; details: Echinochloa crus-galli, 240 h, read-out: Plant response rating, Barnyardgrass; for pest or weed control at 31 g/ha: 31 g ai/ha; for pest or weed control at 125 g/ha: 125 g ai/ha
In short: (§1)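 Soil: loam blended with sand. Formulation: non-phytotoxic solvent mixture plus surfactant, applied as preemergence directed soil spray and as postemergence spray. Scoring: visual, 0 no effect to 100 complete control, roughly 10 days post-treatment in greenhouse.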

[2] = test system: corn (Zea mays); assay: Test A pre-/postemergence plant response; details: Zea mays, 240 h; for Corn plant response rating (crop injury, 0 = no effect, 100 = complete kill) at 31 g/ha: 31 g ai/ha; for Corn plant response rating (crop injury, 0 = no effect, 100 = complete kill) at 125 g/ha: 125 g ai/ha
In short: as §1

[3] = test system: giant foxtail (Setaria faberi); assay: Test A pre-/postemergence plant response; details: Setaria faberi, 240 h, read-out: Plant response rating, Foxtail, Giant; for pest or weed control at 31 g/ha: 31 g ai/ha; for pest or weed control at 125 g/ha: 125 g ai/ha
In short: as §1

[4] = test system: large crabgrass (Digitaria sanguinalis); assay: Test A pre-/postemergence plant response; details: Digitaria sanguinalis, 240 h, read-out: Plant response rating, Crabgrass, Large; for pest or weed control at 31 g/ha: 31 g ai/ha; for pest or weed control at 125 g/ha: 125 g ai/ha
In short: as §1

[5] = test system: wheat (Triticum aestivum); assay: Test B pre-/postemergence plant response; details: for plant injury at 31 g/ha / plant injury at 62 g/ha: Triticum aestivum, read-out: Plant response rating, Wheat; for plant injury at 31 g/ha: 31 g ai/ha; for plant injury at 62 g/ha: 62 g ai/ha, 100 complete control
In short: (§2)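 Visual scoring from 0 (no effect) to 100 (complete control) against untreated controls was done 13 to 15 days after greenhouse treatment. Chemicals were formulated in a surfactant-containing non-phytotoxic solvent and applied to soil preemergence or to 1- to 4-leaf (2-18 cm) plants postemergence.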

[6] = test system: wild oat (Avena fatua); assay: Test B pre-/postemergence plant response; details: for pest or weed control at 31 g/ha / pest or weed control at 62 g/ha: Avena fatua, read-out: Plant response rating, Oat, Wild; for pest or weed control at 31 g/ha: 31 g ai/ha; for pest or weed control at 62 g/ha: 62 g ai/ha, 100 complete control
In short: as §2

[7] = test system: yellow nutsedge (Cyperus esculentus); assay: Test B pre-/postemergence plant response; details: for pest or weed control at 31 g/ha / pest or weed control at 62 g/ha: Cyperus, read-out: Plant response rating, Nutsedge, Yellow; for pest or weed control at 31 g/ha: 31 g ai/ha; for pest or weed control at 62 g/ha: 62 g ai/ha, 100 complete control
In short: as §2

[8] = test system: canarygrass (Phalaris minor); assay: Test B postemergence plant response; details: for Plant response rating, Canarygrass: Postemergence
In short: (§3)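 Emerged plants, 1- to 4-leaf stage, treated; greenhouse 13–15 d; eye-scored vs untreated controls (0–100 scale).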

[9] = test system: chickweed (Stellaria media); assay: Test B postemergence plant response; details: for Plant response rating, Chickweed: Postemergence
In short: as §3

[10] = test system: windgrass (Apera spica-venti); assay: Test B postemergence plant response; details: for Windgrass plant response rating: postemergence, 0-100 scale; for Plant response rating, Windgrass: Postemergence
In short: as §3

[11] = test system: winter barley (Hordeum vulgare); assay: Test B postemergence plant response; details: for Plant response rating, Barley: Postemergence, scale 0 to 100, 0 no effect, 100 complete control
In short: as §3

[12] = post-emergence, Postemergence, 0 to 100 scale (0 no effect, 100 complete control)
[13] = post-emergence, Postemergence, 0 to 100 scale, 0 no effect, 100 complete control
[14] = pre-emergence, Preemergence, 0 to 100 scale, 0 is no effect, 100 is complete control
[15] = pre-emergence, Preemergence, 0 to 100 scale (0 no effect, 100 complete control)
[16] = 8 g ai/ha, postemergence, 0-100 scale
[17] = 16 g ai/ha, postemergence, 0-100 scale
[18] = Preemergence, 8 g ai/ha, scale 0 to 100 (0 no effect, 100 complete control)
[19] = Preemergence, 16 g ai/ha, scale 0 to 100
[20] = post-emergence, Postemergence, scale 0 to 100
[21] = post-emergence, Postemergence, scale 0 to 100, 0 no effect
[22] = pre-emergence, Preemergence, scale 0 to 100 (0 no effect, 100 complete control)
[23] = pre-emergence, Preemergence, 0 to 100 scale, 0 no effect
[24] = 62 g ai/ha, scale 0 to 100, 0 no effect, 100 complete control

Work on `Cc1nn(C)c(=O)c(-c2nc(-c3ccc(Cl)cc3)sc2C)c1O` [Compound 79, 4-[2-(4-chlorophenyl)-5-methyl-4-thiazolyl]-5-hydroxy-2,6-dimethyl-3(2H)-pyridazinone] yielded a pest or weed control at 31 g/ha [1, 12] of 0%, a pest or weed control at 125 g/ha [1, 13] of 50% and a pest or weed control at 31 g/ha [1, 14] of 0%. It also gave a pest or weed control at 125 g/ha [1, 15] of 100%, a Corn plant response rating (crop injury, 0 = no effect, 100 = complete kill) at 31 g/ha [2, 12] of 0% and a Corn plant response rating (crop injury, 0 = no effect, 100 = complete kill) at 125 g/ha [2, 13] of 30%. For the same compound, the Corn plant response rating (crop injury, 0 = no effect, 100 = complete kill) at 31 g/ha [2, 14] was 0%, the Corn plant response rating (crop injury, 0 = no effect, 100 = complete kill) at 125 g/ha [2, 15] was 20% and the pest or weed control at 31 g/ha [3, 12] was 10%. It also gave a pest or weed control at 125 g/ha [3, 13] of 70%, a pest or weed control at 31 g/ha [3, 14] of 10% and a pest or weed control at 125 g/ha [3, 15] of 100%. It also gave a pest or weed control at 31 g/ha [4, 12] of 30%, a pest or weed control at 125 g/ha [4, 13] of 50% and a pest or weed control at 31 g/ha [4, 14] of 10%. For the same compound, the pest or weed control at 125 g/ha [4, 15] was 100%, the “Wheat plant response rating” value [5, 16] was 0 and the “Wheat plant response rating” value [5, 17] was 20. The “Wheat plant response rating” value [5, 18] was 0, the “Wheat plant response rating” value [5, 19] was 0 and the plant injury at 31 g/ha [5, 20] was 60%. It also gave a plant injury at 62 g/ha [5, 21] of 85%, a plant injury at 31 g/ha [5, 22] of 0% and a plant injury at 62 g/ha [5, 23] of 0%. For the same compound, the “Oat, Wild plant response rating” value [6, 16] was 30, the “Oat, Wild plant response rating” value [6, 17] was 45 and the pest or weed control at 31 g/ha [6, 20] was 60%. For the same compound, the pest or weed control at 62 g/ha [6, 21] was 98%, the pest or weed control at 31 g/ha [6, 22] was 70% and the pest or weed control at 62 g/ha [6, 23] was 95%. The “Oat, Wild plant response rating” value [6, 18] was 0, the “Oat, Wild plant response rating” value [6, 19] was 0 and the “Nutsedge, Yellow plant response rating” value [7, 16] was 0. For the same compound, the “Nutsedge, Yellow plant response rating” value [7, 17] was 0, the pest or weed control at 31 g/ha [7, 20] was 0% and the pest or weed control at 62 g/ha [7, 21] was 0%. The pest or weed control at 31 g/ha [7, 22] was 0%, the pest or weed control at 62 g/ha [7, 23] was 0% and the “Nutsedge, Yellow plant response rating” value [7, 18] was 0. The “Nutsedge, Yellow plant response rating” value [7, 19] was 0, the “Canarygrass plant response rating” value [8, 16] was 10 and the “Plant response rating, Canarygrass” value ([8]; 16 g ai/ha, scale 0 to 100) was 55. The “Plant response rating, Canarygrass” value ([8]; 31 g ai/ha, scale 0 to 100) was 85, the “Plant response rating, Canarygrass” value [8, 24] was 95 and the “Chickweed plant response rating” value [9, 16] was 0. The “Plant response rating, Chickweed” value ([9]; 16 g ai/ha, scale 0 to 100) was 0, the “Plant response rating, Chickweed” value ([9]; 31 g ai/ha, scale 0 to 100) was 0 and the “Plant response rating, Chickweed” value [9, 24] was 0. The “Windgrass plant response rating” value ([10]; 8 g ai/ha) was 0, the “Windgrass plant response rating” value ([10]; 16 g ai/ha) was 50 and the “Plant response rating, Windgrass” value ([10]; 31 g ai/ha, scale 0 to 100) was 50. For the same compound, the “Plant response rating, Windgrass” value [10, 24] was 70, the “Barley plant response rating” value [11, 16] was 0 and the “Plant response rating, Barley” value ([11]; 16 g ai/ha) was 10. The “Plant response rating, Barley” value ([11]; 31 g ai/ha) was 30 and the “Plant response rating, Barley” value ([11]; 62 g ai/ha) was 40.
